How the values were obtained:
[1] = target: T1, purified human platelet fibrinogen receptor (GPIIb/IIIa) (Homo sapiens, UniProt P05106+P08514); experiment: test (b): GPIIb/IIIa ELISA, inhibition of biotinylated fibrinogen binding; details: biotinylated fibrinogen 10 nM, read-out: pIC50 (-log(IC50)), inhibition of biotinylated fibrinogen binding in test (b) (converted)
T1 construct: Glycoprotein IIb/IIIa is isolated from human platelet lysates; from tissue
Method: (i) Preparation of human platelet lysates. Platelet rich plasma (PRP) is harvested by centrifugation (1000 rpm, 15 minutes) of whole blood anticoagulated with acid citrate dextrose (trisodium citrate 85 mM, citric acid 70 mM, d-glucose 110 mM) 1 part to 6 parts blood. Prostacyclin (PGI2, 1 μM) is added to the PRP before centrifugation (2400 rpm, 15 mins) and the resulting pellet is resuspended in modified Tyrodes' solution (NACl 130 mM, […], NaHCO3 12 mM, NaH2 PO4 0.5 mM, MgCl2 1 mM, […], Glucose 12 mM, HEPES 5 mM) containing bovine serum albumin 3.5 g/L, PGI2 1 μM and hirudin 0.5 U/ml. The platelet suspension is centrifuged (2400 rpm, 15 minutes) and the resultant pellet resuspended in 500 μl of lysis buffer (octyl glucoside 50 mM, HEPES 10 mM, NaCl 150 mM, CaCl2 1 mM, MgCl2 1 mM, PMSF 1 mM, NEM 10 mM, leupeptin 0.1 mM), agitated at 4° C. for 15 minutes then centrifuged at 24000 rpm, 15 minutes. The supernatant is stored at 4° C. and the pellet re-suspended in 500 μl of lysis buffer. […]
(iii) GPIIb/IIIa ELISA 96 well microtitre plates are coated with 100 μl purified human platelet fibrinogen receptor (GPIIb/IIIa) diluted in coating buffer (Tris-HCl 20 mM, NaCl 150 mM, CaCl2 1 mM, pH7.4) and left overnight at 4° C. […] Colour is allowed to develop for 10-15 minutes before optical densities are read at 650 nm. […]

[2] = system: ADP stimulated platelet aggregation in human, citrated, platelet-rich plasma; experiment: test (a): inhibition of ADP-induced aggregation of human platelet-rich plasma (Born); assay type: cell-based; details: ADP as agonist
From the text: (i) aggregating human, citrated, platelet-rich plasma by addition of adenosine diphosphate (ADP) so as to generate a dose-response curve;
(ii) generating a dose-response curve for ADP stimulated platelet aggregation in the presence of increasing amounts of a test compound (generally in the range 10^-5 M to 10^-10 M); and
(iii) calculating a pA2 value indicating potency of platelet aggregation inhibition for the test compound, averaged over several concentrations, from the calculated 50% response value for ADP aggregation in the presence and absence of the test compound.

[3] = system: aggregation of human blood platelets; experiment: test (a) modified, ex vivo after oral dosing to dogs; assay type: in vivo; details: 1 mg/kg
Method: Test (a) may be modified so as to assess the effects of a test compound ex vivo on the aggregation of human blood platelets after administration of the test compound to a laboratory animal, such as a rat, rabbit, guinea pig, mouse or dog. For example, groups of four male, fasted Alderley Park Wistar rats are orally dosed with a test compound or appropriate vehicle, and at suitable time intervals (1, 3, 5 and 8 hours after dosing) animals are anaesthetised with fluothane and bled by heart puncture. Blood is collected into 3.2% citrate (1 part to 9 parts whole blood) and platelet poor plasma (ppp) prepared by centrifugation (4500×g for 10 minutes). […]
Equal volumes (125 μl) of rat ppp and human prp are mixed together, ADP added, and the whole incubated (37° C.) and stirred (900 rpm) in a BioData platelet aggregometer. Aggregation is induced with ADP and agonist EC50 values calculated for human prp/rat ppp mixtures from animals dosed with test compound or vehicle. A mean concentration ratio (concentration of ADP required to cause a 50% aggregation response in human prp/rat ppp mixtures from animals dosed with antagonist, divided by the concentration of ADP to cause 50% aggregation in human prp/rat ppp mixtures from animals dosed with vehicle) is calculated at each time point.

T1 sequence (P08514 32-887 limits assumed): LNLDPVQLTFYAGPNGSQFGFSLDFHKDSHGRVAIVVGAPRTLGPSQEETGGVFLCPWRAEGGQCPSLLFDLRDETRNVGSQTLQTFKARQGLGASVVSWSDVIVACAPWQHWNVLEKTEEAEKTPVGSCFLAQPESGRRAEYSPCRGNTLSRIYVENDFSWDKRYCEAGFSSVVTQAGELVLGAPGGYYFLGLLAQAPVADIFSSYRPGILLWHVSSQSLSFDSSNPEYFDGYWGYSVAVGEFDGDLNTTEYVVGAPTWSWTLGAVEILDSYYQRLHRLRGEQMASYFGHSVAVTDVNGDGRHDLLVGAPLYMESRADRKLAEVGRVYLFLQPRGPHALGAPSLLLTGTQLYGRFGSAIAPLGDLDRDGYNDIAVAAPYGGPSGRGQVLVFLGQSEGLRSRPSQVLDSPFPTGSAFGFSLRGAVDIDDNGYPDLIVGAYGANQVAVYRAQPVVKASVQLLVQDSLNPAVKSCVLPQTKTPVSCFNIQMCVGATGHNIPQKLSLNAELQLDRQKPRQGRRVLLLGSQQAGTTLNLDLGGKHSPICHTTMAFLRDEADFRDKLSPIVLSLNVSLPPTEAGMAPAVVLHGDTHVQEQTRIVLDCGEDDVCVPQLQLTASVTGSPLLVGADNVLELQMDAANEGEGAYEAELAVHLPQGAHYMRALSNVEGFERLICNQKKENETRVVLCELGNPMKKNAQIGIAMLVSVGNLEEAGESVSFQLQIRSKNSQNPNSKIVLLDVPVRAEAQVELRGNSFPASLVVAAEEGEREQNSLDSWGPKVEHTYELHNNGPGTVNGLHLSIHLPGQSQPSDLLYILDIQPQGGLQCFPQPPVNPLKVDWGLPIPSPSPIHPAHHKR
T1 sequence (P08514 891-1039 limits assumed): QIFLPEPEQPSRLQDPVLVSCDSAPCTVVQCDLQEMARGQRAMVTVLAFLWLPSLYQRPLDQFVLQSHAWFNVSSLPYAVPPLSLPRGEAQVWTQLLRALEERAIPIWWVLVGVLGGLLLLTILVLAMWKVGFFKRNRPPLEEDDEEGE
T1 sequence (P05106 27-788): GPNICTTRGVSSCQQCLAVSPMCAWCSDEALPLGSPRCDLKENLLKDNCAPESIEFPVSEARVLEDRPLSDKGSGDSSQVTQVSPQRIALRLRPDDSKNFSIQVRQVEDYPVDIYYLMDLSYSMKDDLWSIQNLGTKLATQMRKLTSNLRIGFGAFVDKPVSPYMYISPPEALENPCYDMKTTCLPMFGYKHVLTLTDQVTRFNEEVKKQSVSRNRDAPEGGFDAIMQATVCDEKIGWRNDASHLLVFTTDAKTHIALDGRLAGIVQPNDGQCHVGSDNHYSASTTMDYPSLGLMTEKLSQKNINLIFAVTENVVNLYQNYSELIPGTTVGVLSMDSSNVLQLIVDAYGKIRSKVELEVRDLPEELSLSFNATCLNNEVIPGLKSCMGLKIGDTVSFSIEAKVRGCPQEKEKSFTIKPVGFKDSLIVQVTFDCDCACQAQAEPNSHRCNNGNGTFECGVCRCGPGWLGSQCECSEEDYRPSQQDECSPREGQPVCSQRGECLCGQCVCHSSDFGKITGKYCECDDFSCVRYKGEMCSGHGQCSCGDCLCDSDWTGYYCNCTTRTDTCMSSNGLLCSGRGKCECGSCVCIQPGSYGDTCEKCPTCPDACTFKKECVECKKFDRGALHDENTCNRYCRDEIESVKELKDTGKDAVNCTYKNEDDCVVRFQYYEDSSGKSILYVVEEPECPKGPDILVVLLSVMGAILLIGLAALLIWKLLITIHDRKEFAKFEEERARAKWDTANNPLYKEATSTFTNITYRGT

Row | IC50 [1] [nM] | Compound | pA2, potency of platelet aggregation inhibition in test (a) [2] | duration of activity when dosed orally [3]
1 | 2.51 | N=C(N)c1ccc(C(=O)NC(=O)Nc2ccc(OCC(=O)O)cc2)cc1 [Example 3, 4-[3-(4-Amidinobenzoyl)ureido]phenoxyacetic acid] | 8.4 | –
2 | – | CC(C)(C)OC(=O)COc1ccc(NC(=O)NC(=O)c2ccc(C(=N)N)cc2)cc1 [Example 2, t-Butyl 4-[3-(4-amidinobenzoyl)ureido]phenoxyacetate] | – | up to 8 hours
3 | 316 | COC(=O)COc1ccc(NC(=O)NC(=O)c2ccc(C(=N)N)cc2)cc1 [Example 1, Methyl 4-[3-(4-amidinobenzoyl)ureido]phenoxyacetate] | 7.6 | –
